Laboratory results taken from patent US20050209278A1, “Piperidinyl- and piperazinyl-sulfonylmethyl hydroxamic acids and their use as protease inhibitors” (priority 2002, published 2005).

Each compound was assayed against T1, MMP-1 (Homo sapiens, UniProt P03956) (assay: In vitro MMP inhibition, IC50 determination (fluorogenic substrate I)). Settings: value in parentheses; read-out: MMP-1 (IC-50).
T1 construct: made in house; host or cells: MMP-1-transfected HT-1080 cells (spent media)
T1 sequence (P03956 100-469): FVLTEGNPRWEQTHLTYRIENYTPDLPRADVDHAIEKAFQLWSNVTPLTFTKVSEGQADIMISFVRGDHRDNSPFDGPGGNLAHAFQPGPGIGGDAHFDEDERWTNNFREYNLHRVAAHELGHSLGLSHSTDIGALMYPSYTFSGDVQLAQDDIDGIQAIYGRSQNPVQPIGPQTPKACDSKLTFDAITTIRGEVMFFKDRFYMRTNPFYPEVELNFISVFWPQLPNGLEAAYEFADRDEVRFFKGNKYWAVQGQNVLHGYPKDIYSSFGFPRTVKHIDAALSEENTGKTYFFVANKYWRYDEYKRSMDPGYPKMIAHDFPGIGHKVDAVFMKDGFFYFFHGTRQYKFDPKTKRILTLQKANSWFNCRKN
Assay type: biochemical
Description: Several hydroxamic acids and salts thereof were analyzed in in vitro assays to determine their ability to inhibit the MMP cleavage of peptide substrates. […] and IC50 constants were calculated from the assayed hydroxamic acid-MMP interactions. Human recombinant MMP-1, MMP-2, MMP-9, MMP-13, and MMP-14 were used in this assay. All enzymes were prepared in Assignee's laboratories following usual laboratory procedures. Protocols for the preparation and use of these enzymes are available in the scientific literature. See, e.g., Enzyme Nomenclature (Academic Press, San Diego, Calif., 1992) (and the citations therein). See also, Freije et al., “Molecular cloning and expression of collagenase-3, a novel human matrix metalloproteinase produced by breast carcinomas,” J Biol. Chem., 269(24), 16766-16773 (1994). The MMP-1 proenzyme was purified from the spent media of MMP-1-transfected HT-1080 cells provided by Dr. Harold Welgus of Washington University (St. Louis, Mo.). The protein was purified on a zinc chelating column. All MMPs were activated using 4-aminophenylmercuric acetate (“APMA”, Sigma Chemical, St. Louis, Mo.) or trypsin. MMP-9 also was activated using human recombinant MMP-3 (purified in Assignee's laboratory following standard cloning and purification techniques). […] Substrate (I) was purchased from Baychem (Redwood City, Calif.), and substrate II was prepared Assignee's laboratory. Substrate I was used in the IC50 determination assays, while substrate II was used in the Ki determination assays. In the absence of MMP inhibitory activity, either substrate is cleaved at the Gly-Leu peptide bond. […] The stock solutions of the assayed hydroxamic acids (or salts thereof) were prepared in 1% dimethyl sulfoxide (DMSO). […] The experiment controls contained the same amount of Buffer A/DMSO as the assayed sample, but contained no hydroxamic acid (or salt thereof). The assays from which the IC50 determinations were made were performed as follows. […] Louis, Mo.). The assayed hydroxamic acid samples were incubated in MicrofluorTM White Plates (Dynatech, Chantilly, Va.) and analyzed on a Perkin Elmer […] plate reader (Norwalk, Conn.). The excitation wavelength was 328 nm, and the emission wavelength-415 nm. […] As stated in the previous paragraph, samples containing varying concentrations of the same assayed hydroxamic acid were prepared. Inhibition was measured as a reduction in fluorescent intensity as a function of MMP inhibitor concentration. […] All values in Table 2 are given in nM units. The IC50 measurements are in parenthesis.

Row | SMILES | IC50 [µM]
1 | CCCCOc1ccc(N2CCN(S(=O)(=O)C3(C(=O)NO)CCN(c4ccc(C)cc4)CC3)CC2)cc1 [Example 295] | > 10
2 | CCCCOc1ccc(N2CCN(S(=O)(=O)C3(C(=O)NO)CCN(c4ccc(C)cc4)CC3)CC2)cc1F [Example 296] | > 10
3 | COCCOc1ccc(N2CCN(S(=O)(=O)C3(C(=O)NO)CCN(C4CC4)CC3)CC2)cc1F [Example 297] | > 10
4 | CCCCOc1ccc(N2CCN(S(=O)(=O)C3(C(=O)NO)CCN(CC4CC4)CC3)CC2)cc1 [Example 298] | > 10
5 | CCCCOc1ccc(N2CCN(S(=O)(=O)C3(C(=O)NO)CCN(C4CC4)CC3)CC2)cc1 [Example 301] | > 10
6 | C#CCN1CCC(C(=O)NO)(S(=O)(=O)N2CCN(c3ccc(OCCCC)cc3)CC2)CC1 [Example 303] | > 10
